{"source": "patent US9045474B2", "about": "“Compounds and compositions for mitigating tissue damage and lethality” (The Regents of the University of California, priority 2010, dated 2015)", "key": {"[1]": {"test_system": "Yeast cells", "experiment": "DEL assay, antioxidant radioprotection by yeast growth phase", "format": "cell-based, Saccharomyces cerevisiae", "excerpt": "In this study we used the DEL assay to measure gamma-ray induced DNA deletions throughout different phases of yeast culture growth. While yeast survival only differed by as much as two fold throughout the yeast growth phase, proliferating cells in lag and early exponential growth phases were ten-fold more sensitive to ionizing radiation-induced DNA deletions than cells in stationary growth. […] The ability of antioxidants L-ascorbic acid and DMSO to protect against radiation-induced DNA deletions was also measured within the different phases of yeast culture growth. […] This knowledge was used for the screening of radioprotectors."}, "[2]": {"experiment": "Preliminary studies of Targeted Library analogs (DEL/Survival assay)", "format": "cell-based", "excerpt": "Analogues within at least 70% or greater similarity as defined by the Tanimoto rule of similarity are believed to have similar results as the aforementioned compounds in this application. […] Other structures within this limitation (Tanimoto rule of similarity as described and positive in DEL/Survival assay) are included. The DEL Assay, which is further described below, has established itself not only as a effective tool in carcinogenic activity detection but also as an effective methodology in establishing DNA protective properties against insults such as free radicals and ionizing radiation (see, e.g., Sobol, Z., et al., Mutation Research/Fundamental and Molecular Mechanisms of Mutagenesis, 2008. 638(1-2): p. 83-89, Hafer, K., Rivina, L., Schiestl, R H. Yeast DEL assay detects protection against radiation induced cytotoxicity and genotoxicity—adaptation of a microtiter plate version, Radiation Research, 2010, 174(6):719-26)). Thus, the DEL Assay is a reliable tool for the prediction of genotoxic and cytotoxic modulating agents. These agents also include, but are not limited to, ionizing radiation, UV radiation, environmental carcinogenesis, genetic instability, etc.\nCompounds in the Targeted Library are selected as a development candidate using the Tanimoto coefficient. […]"}, "[3]": {"test_system": "C3H mice", "experiment": "Mitigation of radiation-induced lethality in C3H mice (8Gy, LD100/30)", "conditions": "8Gy; 75 mg/kg at 1 hr and 25 hrs post exposure; past 30 days; first small study", "quoted_text": "Radiomitigation studies were conduced by pre-treating C3H mice with the compounds of interest at as concentration of 75 mg/kg and at 24 hrs and 1 hr before an 8 Gy exposure. On a 5×24 mitigation treatment protocol mice were first lethally irradiated with 8 Gy and 24 hrs later received the first subcutaneous injection with the compound suspension with subsequent injections at 48, 72, 96, and 120 hrs. The concentration of the compound in the suspension was 75 mg/kg carrier with either 1N saline or phosphate buffer solution (PBS).\nC3H mice in the mitigation experiment were irradiated with 8Gy and then injected with 75 mg/kg 1 hr post exposure and then again 25 hrs post exposure."}, "[4]": {"test_system": "mouse peripheral blood", "description": "In this study, we examined the role of N-acetyl-L-cysteine (NAC), a clinically proven safe agent, for it's ability to protect against γ-ray-induced DNA strand breaks and/or DNA deletions in yeast and mammals. In the yeast S. cerevisiae, DNA deletions were scored by reversion to histidine prototrophy. Human lymphoblastoid cells were examined for the frequency of γ-H2AX foci formation, indicative of DNA double strand break formation. DNA strand breaks were also measured in mouse peripheral blood by the alkaline comet assay."}, "[5]": {"test_system": "yeast S. cerevisiae", "experiment": "Yeast DNA deletions (reversion to histidine prototrophy) after γ-rays", "format": "cell-based, Saccharomyces cerevisiae", "conditions": "data not shown"}, "[6]": {"test_system": "Human lymphoblastoid cells", "experiment": "γ-H2AX foci formation after ionizing radiation", "format": "cell-based", "conditions": "data not shown"}, "[7]": {"test_system": "Human lymphoblastoid cells", "experiment": "Colony survival assay after ionizing radiation", "format": "cell-based", "conditions": "data not shown"}, "[8]": {"conditions": "lag and early exponential growth phases"}, "[9]": {"conditions": "non-dividing cells in stationary phase"}}, "data": [{"smiles": "O=C1O[C@H]([C@@H](O)CO)C(O)=C1O", "note": "[L-ascorbic acid]", "values": [{"measurement": "protection against radiation-induced DNA deletions", "setting": "[1]; [8]", "result": "protected"}, {"measurement": "protection against radiation-induced DNA deletions", "setting": "[1]; [9]", "result": "could not be protected"}]}, {"smiles": "Cc1sc(NC(=O)CN(Cc2ccccc2)C(=O)c2ccccc2)c(C(N)=O)c1C", "note": "[2-[2-(Benzoyl-benzyl-amino)-acetylamino]-4,5-dimethyl-thiophene-3-carboxylic acid amide]", "values": [{"measurement": "activity in preliminary studies", "setting": "[2]", "result": "shown activity"}]}, {"smiles": "NCCCNCCSP(=O)(O)O", "note": "[Amifostine, reference compound]", "values": [{"measurement": "mice survived LD100/30 irradiation", "setting": "[3]", "result": 33, "unit": "%"}]}, {"smiles": "C[S+](C)[O-]", "note": "[DMSO]", "values": [{"measurement": "protection against radiation-induced DNA deletions", "setting": "[1]; [8]", "result": "protected"}, {"measurement": "protection against radiation-induced DNA deletions", "setting": "[1]; [9]", "result": "could not be protected"}]}, {"smiles": "CC(=O)N[C@@H](CS)C(=O)O", "note": "[NAC, N-acetyl-L-cysteine]", "values": [{"measurement": "genotoxicity of treatment alone", "setting": "[4]; mouse, in vivo", "result": "not genotoxic"}, {"measurement": "protection against DNA strand breaks", "setting": "[4]; via drinking water, whole-body irradiated with 1 Gy", "result": "fully protected against DNA strand breaks"}, {"measurement": "frequency of IR-induced DNA deletions", "setting": "[5]", "result": "reduced the frequency of IR-induced DNA deletions"}, {"measurement": "protection against cell death", "setting": "[5]", "result": "did not protect against cell death"}, {"measurement": "γ-H2AX foci formation", "setting": "[6]", "result": "reduced γ-H2AX foci formation"}, {"measurement": "protective effect in colony survival", "setting": "[7]", "result": "no protective effect"}]}]}
